# Measured values: publication PMC6349357, “Computational and experimental analysis of bioactive peptide linear motifs in the integrin adhesome” (PLoS ONE, 2019)
# What was measured:
# [1] = tested on: TRAP-activated platelets; assay: Inhibition of TRAP-induced platelet aggregation after pre-incubation with peptide; format: cell-based, human (healthy volunteers); settings: for Summary of effects of SDC4-derived palmitylated peptides and scrambled controls, 20μM: S2 Table B / S2 Fig, activation of resting platelets and inhibition of aggregation induced by 4 μM TRAP, in words; for Inhibition, donor 20_08_13: replicate 20_08_13
# Method: (§1) Blood was drawn from healthy volunteers into a syringe containing a final volume of 15% Acid Citrate Dextrose (ACD). The blood/ACD mixture was then aliquoted into 15 ml Cellstar tubes, at volumes of 5ml per tube, and centrifuged at 150 rcf for 10 minutes to obtain platelet rich plasma (PRP). PRP was then transferred to a 50ml tube using a pipette. The pH was then adjusted to 6.5. Prostaglandin (PGE1) was then added with a final concentration of 1μM. The PRP was then centrifuged at 750 rcf. After centrifugation the platelet poor plasma (PPP) was discarded and the pellet was resuspended in buffer A (6 mM dextrose, 130 mM NaCl, 9 mM NaHCO3, 10 mM sodium citrate, 10 mM Tris base, 3 mM KCl, 0.81 mM KH2PO4 and 0.9 mM MgCl26H2O, pH 7.4). A platelet concentration of 3x10^5/μl or 1x10^6/μl was obtained by dilution depending on the experiment in which they were used. Platelets were left to rest for 45 minutes and supplemented with 1.8mM calcium chloride prior to use.
# (§2) A platelet concentration of 3x10^5 /μl was used when performing standard aggregations and a concentration of 1x10^6 /μl was used for sample preparation for western blot analysis. The extent of platelet aggregation was measured by quantifying the optical density of the samples using the Bio-Data PAP-8 aggregometer (platelet aggregation profiler, Horsham, PA, USA). A temperature of 37°C was maintained and samples were stirred using magnets spinning at 1100 rpm. 200 μl of washed platelets was added to each aggregation tube. Different volumes of buffer, peptide and TRAP were added to achieve the desired concentrations. Peptide/buffer was added to each well after two minutes. TRAP, with a final concentration depending on the experiment, was added 6 minutes later and data was collected for an additional 7 minutes.
# [2] = tested on: resting platelets; assay: Platelet aggregation induced by peptide in resting washed platelets (activation); format: cell-based, human (healthy volunteers); settings: for Activation, 5μM / Activation, 20μM: S3 Table, n=3; for Activation, 5μM: peptide 5 μM; for Activation, 20μM: peptide 20 μM; for Activation, donor 20 08 13: replicate 20_08_13; for Activation, donor 22_08_13_DONOR1: replicate 22_08_13_DONOR1; for Activation, donor 22_08_13_DONOR2: replicate 22_08_13_DONOR2; for Activation: platelet aggregation in resting platelets after 6 minutes incubation with peptide, pal-peptides 20 μM, tat-peptides 50 μM, optical density, aggregometer, mean, n>=3
# Method: as §1, §2
# [3] = S3 Table, peptide 5 μM, aggregation after TRAP, n=3
# [4] = S3 Table, peptide 20 μM, aggregation after TRAP, n=3
# [5] = replicate 22_08_13_DONOR1, peptide 20 μM, TRAP 4 μM
# [6] = replicate 22_08_13_DONOR2, peptide 20 μM, TRAP 4 μM
# [7] = SDC4 peptides and controls, 20 μM, unit assumed
# [8] = SDC4 peptides and controls, 20 μM
# [9] = platelet aggregation induced by 4 μM TRAP in platelets pre-incubated with peptide (low value = inhibition), pal-peptides 20 μM, tat-peptides 50 μM, mean, n>=3
substance,measurement,setting,value
"Pal-KKAPTNEFYA [Pal-KK-SDC4-tail, palmitylated, slightly extended SDC4 tail peptide …]","Summary of effects of SDC4-derived palmitylated peptides and scrambled controls, 20μM",[1],Inhibitor
same,Platelet aggregation remaining after TRAP (low = inhibition),[1]; [3],63
same,Platelet aggregation remaining after TRAP (low = inhibition),[1]; [4],36
same,"Aggregation after TRAP, peptide alone 1x (A 1x / B 1x)","[1]; TRAP 2 μM after 6 minutes pre-incubation, 4 μM pal-peptides, 10 μM tat-peptides, mean n = 3",64.67
same,"Aggregation after TRAP, peptide alone 2x (A 2x / B 2x)","[1]; TRAP 2 μM after 6 minutes pre-incubation, double concentration of 4 μM (pal) / 10 μM (tat), mean n = 3",3
same,"Inhibition, donor 14_06_13","[1]; replicate 14_06_13, peptide 20 μM, TRAP 4 μM",65
same,"Inhibition, donor 18_06_13","[1]; replicate 18_06_13, peptide 20 μM, TRAP 4 μM",64
same,"Inhibition, donor 20_06_13","[1]; replicate 20_06_13, peptide 20 μM, TRAP 4 μM",71
same,"Inhibition, donor 20_08_13","[1]; peptide 20 μM, TRAP 4 μM",4
same,Platelet aggregation remaining after TRAP (low = inhibition),[1]; [5],2
same,Platelet aggregation remaining after TRAP (low = inhibition),[1]; [6],12
same,"Activation, 5μM",[2]; unit assumed,2%
same,"Activation, 20μM",[2]; unit assumed,1%
same,"Activation, donor 14 06 13","[2]; replicate 14_06_13, SDC4 peptides and controls, 20 μM, unit assumed",2%
same,"Activation, donor 18_06_13","[2]; replicate 18_06_13, SDC4 peptides and controls, 20 μM, in % (unit assumed)",-1
same,"Activation, donor 20_06_13","[2]; replicate 20_06_13, SDC4 peptides and controls, 20 μM, in % (unit assumed)",2
same,"Activation, donor 20 08 13",[2]; [7],3%
same,"Activation, donor 22_08_13_DONOR1",[2]; [8],1
same,"Activation, donor 22_08_13_DONOR2",[2]; [8],1
"IGLPKKKYK [pal-SDC4_middle Control 2, scrambled control of pal-SDC4_middle, reference compound]","Summary of effects of SDC4-derived palmitylated peptides and scrambled controls, 20μM",[1],Inhibitor and mild activator
same,"Inhibition, donor 20_08_13","[1]; peptide 20 μM, TRAP 4 μM",40
same,Platelet aggregation remaining after TRAP (low = inhibition),[1]; [5],19
same,Platelet aggregation remaining after TRAP (low = inhibition),[1]; [6],46
same,"Activation, donor 20 08 13",[2]; [7],12%
same,"Activation, donor 22_08_13_DONOR1",[2]; [8],17
same,"Activation, donor 22_08_13_DONOR2",[2]; [8],12
"pal-KVGFFKR-TLELDRLMASLS [B20p ITGA2b-JM U TGFB1I1-LD, palmitylated chimeric peptide]",Platelet aggregation remaining after TRAP (low = inhibition),[1]; [3],71
same,Platelet aggregation remaining after TRAP (low = inhibition),[1]; [4],66
same,"Activation, 5μM",[2]; unit assumed,2%
same,"Activation, 20μM",[2]; unit assumed,2%
"pal-KVGAAKR-RMKKKDEGSYD [B16p ITGA2b-JM U SDC4-JM, palmitylated chimeric peptide]",Platelet aggregation remaining after TRAP (low = inhibition),[1]; [3],72
same,Platelet aggregation remaining after TRAP (low = inhibition),[1]; [4],4
same,"Activation, 5μM",[2]; unit assumed,3%
same,"Activation, 20μM",[2]; unit assumed,0%
"KLSQLTSLLSSIE-tat [INPP5D-tat, INPP5D peptide with C-terminal tat]",Platelet aggregation remaining after TRAP (low = inhibition),[1]; [9],74
same,"Aggregation after TRAP activation, donor a","[1]; replicate donor a, TRAP 4 μM, pal 20 μM, tat 50 μM",70
same,"Aggregation after TRAP activation, donor b","[1]; replicate donor b, TRAP 4 μM, pal 20 μM, tat 50 μM",77
same,"Aggregation after TRAP activation, donor c","[1]; replicate donor c, TRAP 4 μM, pal 20 μM, tat 50 μM",76
same,"Aggregation after TRAP activation, donor d","[1]; replicate donor d, TRAP 4 μM, pal 20 μM, tat 50 μM",75
same,"Aggregation after TRAP activation, donor e","[1]; replicate donor e, TRAP 4 μM, pal 20 μM, tat 50 μM",73
same,Activation,[2]; unit assumed,4%
same,"Aggregation before TRAP activation, donor a","[2]; replicate donor a, pal 20 μM, tat 50 μM",4
same,"Aggregation before TRAP activation, donor b","[2]; replicate donor b, pal 20 μM, tat 50 μM",8
same,"Aggregation before TRAP activation, donor c","[2]; replicate donor c, pal 20 μM, tat 50 μM",2
same,"Aggregation before TRAP activation, donor d","[2]; replicate donor d, pal 20 μM, tat 50 μM",3
same,"Aggregation before TRAP activation, donor e","[2]; replicate donor e, pal 20 μM, tat 50 μM",4
"pal-KVGFFKR-RMKKKDEGSYD [B17p ITGA2b-JM2 U SDC4-JM, palmitylated chimeric peptide]",Platelet aggregation remaining after TRAP (low = inhibition),[1]; [3],66
same,Platelet aggregation remaining after TRAP (low = inhibition),[1]; [4],11
same,"Activation, 5μM",[2]; unit assumed,1%
same,"Activation, 20μM",[2]; unit assumed,2%
"tat-GRDKYKTLRQIRQGNTKQRIDEFESM [tat-MSN, tat peptide from MSN]",Platelet aggregation remaining after TRAP (low = inhibition),[1]; [9],73
same,"Aggregation after TRAP activation, donor h","[1]; replicate donor h, TRAP 4 μM, pal 20 μM, tat 50 μM",76
same,"Aggregation after TRAP activation, donor i","[1]; replicate donor i, TRAP 4 μM, pal 20 μM, tat 50 μM",68
same,"Aggregation after TRAP activation, donor j","[1]; replicate donor j, TRAP 4 μM, pal 20 μM, tat 50 μM",75
same,Activation,[2]; unit assumed,3%
same,"Aggregation before TRAP activation, donor h","[2]; replicate donor h, pal 20 μM, tat 50 μM",3
same,"Aggregation before TRAP activation, donor i","[2]; replicate donor i, pal 20 μM, tat 50 μM",3
same,"Aggregation before TRAP activation, donor j","[2]; replicate donor j, pal 20 μM, tat 50 μM",4
"pal-TLELDRLMASLS [B23p TGFB1I1-LD, palmitylated TGFB1I1 LD peptide]",Platelet aggregation remaining after TRAP (low = inhibition),[1]; [3],73
same,Platelet aggregation remaining after TRAP (low = inhibition),[1]; [4],70
same,"Activation, 5μM",[2]; unit assumed,2%
same,"Activation, 20μM",[2]; unit assumed,3%
